# Tested on: TFEB
# Assay: TFEB nuclear translocation assay, HeLa wt cells
# Assay type: cell-based
# Conditions: 2 hrs compound treatment, Table 1 does not say HeLa wt or TRPML1 KO
# Outline: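 HeLa wt cells were treated with compound for 2 hrs at 37° C, then fixed in 4% PFA and immunostained for TFEB with an Alexa 488 secondary and Hoechst nuclear counterstain. Automated epifluorescence imaging at ×20 gave the ratio of nuclear TFEB intensity to a perinuclear ring region, from which AC50 was derived.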
row,Compound,AC50 [nM]
1,"CN(C)S(=O)(=O)c1ccc(S(=O)(=O)Nc2ccccc2N2C3CC2CN(c2ccc(Cl)cc2F)C3)cc1 [Compound A-28, N4-{2-[3-(4-chloro-2-fluorophenyl)-3,6-diazabicyclo[3.1.1]heptan-6-yl]phenyl}-N1,N1-dimethylbenzene-1,4-disulfonamide]",≤ 2000

# Same assay, conditions: Homo sapiens, HeLa, 2 h, 2 hrs compound treatment, Table 1 does not say HeLa wt or TRPML1 KO
row,Compound,AC50 [nM]
1,"C[C@H]1COC[C@H](C)N1CC1CN(c2c(F)cccc2NS(=O)(=O)c2ccc(S(=O)(=O)N(C)C)cc2)C1 (stereo in doubt) [Compound A-916, rel-N4-[2-(3-{[(3R,5R)-3,5-dimethylmorpholin-4-yl]methyl}azetidin-1-yl)-3-fluorophenyl]-N1,N1-dimethylbenzene-1,4-disulfonamide]",≥ 10000
2,"O=S(=O)(Nc1ccccc1N1CCN(c2ccc(Cl)cc2F)CC1)c1cccnc1 [Compound A-1, N-{2-[4-(4-chloro-2-fluorophenyl)piperazin-1-yl]phenyl}pyridine-3-sulfonamide]",≤ 2000
3,"Cn1cnc(S(=O)(=O)Nc2ccccc2N2CCN(c3ccc(Cl)cc3F)CC2)c1 [Compound A-2, N-{2-[4-(4-chloro-2-fluorophenyl)piperazin-1-yl]phenyl}-1-methyl-1H-imidazole-4-sulfonamide]",≤ 2000
4,"CN(C)S(=O)(=O)c1ccc(S(=O)(=O)Nc2ccccc2C#Cc2ccc(Cl)cc2F)cc1 [Compound A-3, N1-(2-((4-chloro-2-fluorophenyl)ethynyl)phenyl)-N4,N4-dimethylbenzene-1,4-disulfonamide]",≤ 2000
5,"COc1cccc(S(=O)(=O)Nc2ccccc2N2CCN(c3ccc(Cl)cc3F)CC2)c1 [Compound A-4, N-{2-[4-(4-chloro-2-fluorophenyl)piperazin-1-yl]phenyl}-3-methoxybenzene-1-sulfonamide]",≤ 2000
6,"N#Cc1cccc(S(=O)(=O)Nc2ccccc2N2CCN(c3ccc(Cl)cc3F)CC2)c1 [Compound A-5, N-{2-[4-(4-chloro-2-fluorophenyl)piperazin-1-yl]phenyl}-3-cyanobenzene-1-sulfonamide]",2010 to 8000
7,"Cn1cc(S(=O)(=O)Nc2ccccc2N2CCN(c3ccc(Cl)cc3F)CC2)cn1 [Compound A-6, N-{2-[4-(4-chloro-2-fluorophenyl)piperazin-1-yl]phenyl}-1-methyl-1H-pyrazole-4-sulfonamide]",≥ 10000
8,"Cc1nc(C)c(S(=O)(=O)Nc2ccccc2N2CCN(c3ccc(Cl)cc3F)CC2)s1 [Compound A-7, N-{2-[4-(4-chloro-2-fluorophenyl)piperazin-1-yl]phenyl}-2,4-dimethyl-1,3-thiazole-5-sulfonamide]",≤ 2000
9,"O=S(=O)(Nc1ccccc1N1CCN(c2ccc(Cl)cc2F)CC1)C1CCCCC1 [Compound A-8, N-{2-[4-(4-chloro-2-fluorophenyl)piperazin-1-yl]phenyl}cyclohexanesulfonamide]",≥ 10000
10,"CN(C)S(=O)(=O)c1ccc(NC(=O)c2ccccc2N2CCN(c3ccc(Cl)cc3F)CC2)cc1 [Compound A-9, 2-(4-(4-chloro-2-fluorophenyl)piperazin-1-yl)-N-(4-(N,N-dimethylsulfamoyl)phenyl)benzamide]",≤ 2000
11,"CN(C)S(=O)(=O)c1ccc(S(=O)(=O)Nc2ccccc2N2CCC(c3ccccc3F)CC2)cc1 [Compound A-10, N4-{2-[4-(2-fluorophenyl)piperidin-1-yl]phenyl}-N1,N1-dimethylbenzene-1,4-disulfonamide]",≤ 2000
12,"CN(C)S(=O)(=O)c1ccc(C(=O)Nc2ccccc2N2CCN(c3ccc(Cl)cc3F)CC2)cc1 [Compound A-11, N-{2-[4-(4-chloro-2-fluorophenyl)piperazin-1-yl]phenyl}-4-(dimethylsulfamoyl)benzamide]",≤ 2000
13,"CN(C)S(=O)(=O)c1ccc(S(=O)(=O)Nc2ccccc2N2CCN(c3ccc(Cl)cc3F)CC2)cc1 [Compound A-12, N4-{2-[4-(4-chloro-2-fluorophenyl)piperazin-1-yl]phenyl}-N1,N1-dimethylbenzene-1,4-disulfonamide]",≤ 2000
14,"O=S(=O)(Nc1ccccc1N1CCN(c2ccc(Cl)cc2F)CC1)C1CCOCC1 [Compound A-14, N-{2-[4-(4-chloro-2-fluorophenyl)piperazin-1-yl]phenyl}oxane-4-sulfonamide]",2010 to 8000
15,"Cn1nccc1S(=O)(=O)Nc1ccccc1N1CCN(c2ccc(Cl)cc2F)CC1 [Compound A-15, N-{2-[4-(4-chloro-2-fluorophenyl)piperazin-1-yl]phenyl}-1-methyl-1H-pyrazole-5-sulfonamide]",≥ 10000
16,"CN1CCC(S(=O)(=O)Nc2ccccc2N2CCN(c3ccc(Cl)cc3F)CC2)CC1 [Compound A-16, N-{2-[4-(4-chloro-2-fluorophenyl)piperazin-1-yl]phenyl}-1-methylpiperidine-4-sulfonamide]",2010 to 8000
17,"CC(=O)N1CCC(S(=O)(=O)Nc2ccccc2N2CCN(c3ccc(Cl)cc3F)CC2)CC1 [Compound A-17, 1-acetyl-N-{2-[4-(4-chloro-2-fluorophenyl)piperazin-1-yl]phenyl}piperidine-4-sulfonamide]",2010 to 8000

row,Compound,AC50 [nM]
1,"Cc1nn(C)c(N2CCN(c3ccc(Cl)cc3F)CC2)c1NS(=O)(=O)c1ccc(S(=O)(=O)N(C)C)cc1 [Compound A-18, N1-(5-(4-(4-chloro-2-fluorophenyl)piperazin-1-yl)-1,3-dimethyl-1H-pyrazol-4-yl)-N4,N4-dimethylbenzene-1,4-disulfonamide]",≤ 2000
2,"CN(C)S(=O)(=O)c1ccc(S(=O)(=O)Nc2ccccc2C2=CCN(c3ccc(Cl)cc3F)CC2)cc1 [Compound A-19, N1-(2-(1-(4-chloro-2-fluorophenyl)-1,2,3,6-tetrahydropyridin-4-yl)phenyl)-N4,N4-dimethylbenzene-1,4-disulfonamide]",≤ 2000
3,"O=S(=O)(Nc1ccccc1N1CCN(c2ccc(Cl)cc2F)CC1)c1ccccn1 [Compound A-20, N-{2-[4-(4-chloro-2-fluorophenyl)piperazin-1-yl]phenyl}pyridine-2-sulfonamide]",≤ 2000
4,"Cn1ccc(S(=O)(=O)Nc2ccccc2N2CCN(c3ccc(Cl)cc3F)CC2)n1 [Compound A-21, N-{2-[4-(4-chloro-2-fluorophenyl)piperazin-1-yl]phenyl}-1-methyl-1H-pyrazole-3-sulfonamide]",2010 to 8000
5,"CN(C)S(=O)(=O)c1ccc(S(=O)(=O)Nc2ccccc2C2CCN(c3ccc(Cl)cc3F)CC2)cc1 [Compound A-22, N1-(2-(1-(4-chloro-2-fluorophenyl)piperidin-4-yl)phenyl)-N4,N4-dimethylbenzene-1,4-disulfonamide]",2010 to 8000
6,"CN(C)S(=O)(=O)c1ccc(S(=O)(=O)Nc2ccccc2N2CCC(c3ccc(Cl)cc3F)CC2)cc1 [Compound A-23, N4-{2-[4-(4-chloro-2-fluorophenyl)piperidin-1-yl]phenyl}-N1,N1-dimethylbenzene-1,4-disulfonamide]",≤ 2000
7,"CN(C)S(=O)(=O)c1ccc(S(=O)(=O)Nc2ccccc2N2[C@@H]3CC[C@H]2CN(c2ccc(Cl)cc2F)C3)cc1 [Compound A-25, N4-{2-[(1R,5S)-3-(4-chloro-2-fluorophenyl)-3,8-diazabicyclo[3.2.1]octan-8-yl]phenyl}-N1,N1-dimethylbenzene-1,4-disulfonamide]",≤ 2000
8,"CN(C)S(=O)(=O)c1ccc(S(=O)(=O)Nc2ccccc2N2CC3CCC2CN3c2ccc(Cl)cc2F)cc1 (stereo not shown) [Compound A-26, N4-{2-[5-(4-chloro-2-fluorophenyl)-2,5-diazabicyclo[2.2.2]octan-2-yl]phenyl}-N1,N1-dimethylbenzene-1,4-disulfonamide]",≤ 2000
9,"CN(C)S(=O)(=O)c1ccc(S(=O)(=O)Nc2ccccc2N2C3CC2CN(c2ccc(Cl)cc2F)C3)cc1 [Compound A-27, N4-{2-[3-(4-chloro-2-fluorophenyl)-3,6-diazabicyclo[3.1.1]heptan-6-yl]phenyl}-N1,N1-dimethylbenzene-1,4-disulfonamide]",2010 to 8000
10,"Cc1nn(C)c(C2=CCN(c3ccc(Cl)cc3F)CC2)c1NS(=O)(=O)c1ccc(S(=O)(=O)N(C)C)cc1 [Compound A-29, N1-(5-(1-(4-chloro-2-fluorophenyl)-1,2,3,6-tetrahydropyridin-4-yl)-1,3-dimethyl-1H-pyrazol-4-yl)-N4,N4-dimethylbenzene-1,4-disulfonamide]",≥ 10000
11,"CN(C)S(=O)(=O)c1ccc(S(=O)(=O)Nc2ccccc2N2CC3CC(C2)N3c2ccc(Cl)cc2F)cc1 [Compound A-30, N4-{2-[6-(4-chloro-2-fluorophenyl)-3,6-diazabicyclo[3.1.1]heptan-3-yl]phenyl}-N1,N1-dimethylbenzene-1,4-disulfonamide]",≤ 2000
12,"CN(C)S(=O)(=O)c1ccc(S(=O)(=O)Nc2ccccc2N2CC3CC2CN3c2ccc(Cl)cc2F)cc1 (stereo not shown) [Compound A-31, N4-{2-[5-(4-chloro-2-fluorophenyl)-2,5-diazabicyclo[2.2.1]heptan-2-yl]phenyl}-N1,N1-dimethylbenzene-1,4-disulfonamide]",≤ 2000
13,"CN(C)S(=O)(=O)c1ccc(S(=O)(=O)Nc2ccccc2N2CC=C(c3ccc(Cl)cc3F)CC2)cc1 [Compound A-32, N4-{2-[4-(4-chloro-2-fluorophenyl)-1,2,3,6-tetrahydropyridin-1-yl]phenyl}-N1,N1-dimethylbenzene-1,4-disulfonamide]",≤ 2000
14,"Cc1nn(C)c(C2CCN(c3ccc(Cl)cc3F)CC2)c1NS(=O)(=O)c1ccc(S(=O)(=O)N(C)C)cc1 [Compound A-33, N1-(5-(1-(4-chloro-2-fluorophenyl)piperidin-4-yl)-1,3-dimethyl-1H-pyrazol-4-yl)-N4,N4-dimethylbenzene-1,4-disulfonamide]",≥ 10000
15,"COc1cc(S(=O)(=O)Nc2ccccc2N2CCN(c3ccc(Cl)cc3F)CC2)ccn1 [Compound A-34, N-{2-[4-(4-chloro-2-fluorophenyl)piperazin-1-yl]phenyl}-2-methoxypyridine-4-sulfonamide]",≤ 2000
16,"Cc1nocc1S(=O)(=O)Nc1ccccc1N1CCN(c2ccc(Cl)cc2F)CC1 [Compound A-35, N-{2-[4-(4-chloro-2-fluorophenyl)piperazin-1-yl]phenyl}-3-methyl-1,2-oxazole-4-sulfonamide]",≥ 10000
